Reference: patent publication US6444617B1, “Fused-heterocycle dicarboxylic acid diamide derivatives or salts thereof, herbicide and usage thereof” (Nihon Nohyaku Co., Ltd., priority 1998, dated 2002)

Columns and labels:
Type in all cases: in vivo
[1] = system: barnyard grass (Echinochloa crus-galli Beauv.); assay: Test Example 1: herbicidal effect on paddy field weeds before emergence; conditions: Dosage 5 kg/ha
Experimental: (§1) Test for Herbicidal Effect on Paddy Field Weeds Before Emergence Soil was filled into 1/10000 are pots and brought into a state of paddy field, in which seeds of barnyard grass (Echinochloa crus-galli Beauv.) and bulrush (Scirpus juncoides Roxb.) were made to be before germination. The soil in the pots were treated with a solution containing a predetermined dosage of a chemical agent comprising a compound of the present invention listed in Tables 1 to 14. Twenty one days after the treatment, the herbicidal effect was investigated, the result was compared with that in untreated plot to calculate the weed-controlling rate, and the herbicidal effect was judged according to the following criterion: […]

[2] = system: bulrush (Scirpus juncoides Roxb.); assay: as above; conditions: Dosage 5 kg/ha
Experimental: as §1

[3] = system: bird's eye speedwell (Veronica persica Poir.), Vp; assay: Test Example 4: herbicidal effect on upland weeds after emergence; conditions: dosage 5 kg/ha; sprayed after emergence; judged 14 days after treatment
Description: (§2) Herbicidal Effect on Upland Weeds After Emergence Polyethylene-made vats having a size of 10 cm (length)×20 cm (width)×5 cm (height) were filled with soil, sown with seeds of the following noxious upland weeds and with seeds of soybean plant and wheat as upland crop plants, and then covered with soil. The plants were made to grow up until they reached the leaf-stages mentioned below, after which an agent comprising a prescribed concentration of a compound of the present invention (listed in Tables 1 to 14) as active ingredient was sprayed. Fourteen days after the treatment, the herbicidal effect was investigated, from which weed-killing rate was calculated in the same manner as in Test Example 1 and the results were judged. […] Sample weeds, their leaf stages, and leaf stages of soybean plant and wheat were as follows: [table]

[4] = system: velvetleaf (Abutilon theophtasti L.), At; assay: as above; conditions: dosage 5 kg/ha; sprayed after emergence; judged 14 days after treatment
Description: as §2

[5] = system: cocklebur (Xanthium strumarium L.), Xs; assay: as above; conditions: dosage 5 kg/ha; sprayed after emergence; judged 14 days after treatment
Description: as §2

[6] = system: barnyard grass (Echinochloa crus-galli Beauv.), Ec; assay: as above; conditions: dosage 5 kg/ha; sprayed after emergence; judged 14 days after treatment
Description: as §2

[7] = system: cleavers (Galium aparine L.), Ga; assay: as above; conditions: dosage 5 kg/ha; sprayed after emergence; judged 14 days after treatment
Description: as §2

[8] = system: forxtail grass (Alopecurus aequalis var. amurensis Ohwi), Am; assay: as above; conditions: dosage 5 kg/ha; sprayed after emergence; judged 14 days after treatment
Description: as §2

[9] = system: monochoria (Monochoria vaginalis Presl); assay: Test Example 2: herbicidal effect on paddy field weeds after emergence; conditions: Dosage 5 kg/ha; one-leaved stage; 21 days after treatment
Experimental: (§3) Test for Herbicidal Effect on Paddy Field Weeds After Emergence. Soil was filled into 1/10000 are pots and brought into a state of paddy field, in which seeds of barnyard grass (Echinochloa crus-galli Beauv.), bulrush (Scirpus juncoides Roxb.) and monochoria (Monochoria vaginalis Presl) were made to reach one-leaved stage. The soil in the pots were treated with a solution containing a predetermined dosage of a chemical agent comprising a compound of the present invention listed in Tables 1 to 14. Twenty one days after the treatment, the herbicidal effect was investigated and the result was compared with that in untreated plot to calculate the weed-controlling rate, and the herbicidal effect was judged according to the same criterion as in Test Example 1.

[10] = system: barnyard grass (Echinochloa crus-galli Beauv.); assay: as above; conditions: Dosage 5 kg/ha; one-leaved stage; 21 days after treatment
Experimental: as §3

[11] = system: bulrush (Scirpus juncoides Roxb.); assay: as above; conditions: Dosage 5 kg/ha; one-leaved stage; 21 days after treatment
Experimental: as §3

soybean plant (So) = assay: Test Example 3: phytotoxicity to upland crop plants, treatment before emergence; conditions: dosage 5 kg/ha
Experimental: (§4) Herbicidal Effect on Upland Weeds Before Emergence […] Then, a liquid preparation of an agent comprising a prescribed concentration of a compound of the present invention (the compounds listed in Tables 1-14) as active ingredient was sprayed. Fourteen days after the treatment, the herbicidal effect was investigated, from which weed-killing rate was calculated in the same manner as in Test Example 1, and the herbicidal effect was judged. At the same time, phytotoxicity to soybean plant and wheat was investigated and judged according to the criterion mentioned below.

wheat (Wh) = assay: as above; conditions: dosage 5 kg/ha
Experimental: as §4

wheat = assay: Test Example 4: phytotoxicity to upland crop plants, treatment after emergence; conditions: dosage 5 kg/ha, sprayed after emergence, judged 14 days after treatment
Description: as §2

soybean plant = assay: as above; conditions: dosage 5 kg/ha, sprayed after emergence, judged 14 days after treatment
Description: as §2

[12] = system: bird's eye speedwell (Veronica persica Poir.), Vp; assay: Test Example 3: herbicidal effect on upland weeds before emergence; conditions: dosage 5 kg/ha
Experimental: as §4, with “judged.” for “judged. At the same time, phytotoxicity to soybean plant and wheat was investigated and judged according to the criterion mentioned below.”

[13] = system: velvetleaf (Abutilon theophtasti L.), At; assay: as above; conditions: dosage 5 kg/ha
Experimental: as §4, with “judged.” for “judged. At the same time, phytotoxicity to soybean plant and wheat was investigated and judged according to the criterion mentioned below.”

[14] = system: cocklebur (Xanthium strumarium L.), Xs; assay: as above; conditions: dosage 5 kg/ha
Experimental: as §4, with “judged.” for “judged. At the same time, phytotoxicity to soybean plant and wheat was investigated and judged according to the criterion mentioned below.”

[15] = system: barnyard grass (Echinochloa crus-galli Beauv.), Ec; assay: as above; conditions: dosage 5 kg/ha
Experimental: as §4, with “judged.” for “judged. At the same time, phytotoxicity to soybean plant and wheat was investigated and judged according to the criterion mentioned below.”

[16] = system: cleavers (Galium aparine L.), Ga; assay: as above; conditions: dosage 5 kg/ha
Experimental: as §4, with “judged.” for “judged. At the same time, phytotoxicity to soybean plant and wheat was investigated and judged according to the criterion mentioned below.”

[17] = system: forxtail grass (Alopecurus aequalis var. amurensis Ohwi), Am; assay: as above; conditions: foxtail grass, dosage 5 kg/ha
Experimental: as §4, with “judged.” for “judged. At the same time, phytotoxicity to soybean plant and wheat was investigated and judged according to the criterion mentioned below.”

Row | Compound | Pre-emergence treatment Barnyard grass (herbicidal effect) [1] | Pre-emergence treatment Bulrush (herbicidal effect) [2] | Herbicidal effect Vp [3] | Herbicidal effect At [4] | Herbicidal effect Xs [5] | Herbicidal effect Ec [6] | Herbicidal effect Ga [7] | Herbicidal effect Am [8] | Post-emergence treatment Monochoria (herbicidal effect) [9] | Post-emergence treatment Barnyard grass (herbicidal effect) [10] | Post-emergence treatment Bulrush (herbicidal effect) [11] | Phytotoxicity So (soybean plant (So)) | Phytotoxicity Wh (wheat (Wh)) | Phytotoxicity Wh (wheat) | Phytotoxicity So (soybean plant) | Herbicidal effect Vp [12] | Herbicidal effect At [13] | Herbicidal effect Xs [14] | Herbicidal effect Ec [15] | Herbicidal effect Ga [16] | also measured
1 | CCCNC(=O)c1cc2c(nc1C(=O)Nc1c(CC)ccc(Cl)c1CC)[S+]([O-])CC2 (stereo not drawn) [Compound No. 1028] | 5 (Weed-killing rate is 100%.) | 5 (Weed-killing rate is 100%.) | 5 (Weed-killing rate is 100%.) | 5 (Weed-killing rate is 100%.) | 5 (Weed-killing rate is 100%.) | 5 (Weed-killing rate is 100%.) | 4 (Weed-killing rate is 90-99%.) | 5 (Weed-killing rate is 100%.) | 5 (Weed-killing rate is 100%.) | 5 (Weed-killing rate is 100%.) | 5 (Weed-killing rate is 100%.) | 4 (Crop-killing rate is 90-99%.) | 5 (Crop-killing rate is 100%.) | 5 (Crop-killing rate is 100%.) | 4 (Crop-killing rate is 90-99%.) | 5 (Weed-killing rate is 100%.) | 5 (Weed-killing rate is 100%.) | 5 (Weed-killing rate is 100%.) | 5 (Weed-killing rate is 100%.) | 5 (Weed-killing rate is 100%.) | Herbicidal effect Am [17]: 5 (Weed-killing rate is 100%.)
2 | CCCNC(=O)c1cc2c(nc1C(=O)Nc1c(CC)ccc(Cl)c1CC)S(=O)(=O)CC2 [Compound No. 1040, 6-(3-Chloro-2,6-diethylphenyl)-aminocarbonyl-2,3-dihydro-1,1-dioxo-thieno[2,3-b]pyridine-5-carboxylic Acid n-Propylamide] | 5 (Weed-killing rate is 100%.) | 5 (Weed-killing rate is 100%.) | 5 (Weed-killing rate is 100%.) | 5 (Weed-killing rate is 100%.) | 5 (Weed-killing rate is 100%.) | 5 (Weed-killing rate is 100%.) | 5 (Weed-killing rate is 100%.) | 5 (Weed-killing rate is 100%.) | 5 (Weed-killing rate is 100%.) | 5 (Weed-killing rate is 100%.) | 5 (Weed-killing rate is 100%.) | 4 (Crop-killing rate is 90-99%.) | 5 (Crop-killing rate is 100%.) | 5 (Crop-killing rate is 100%.) | 4 (Crop-killing rate is 90-99%.) | 5 (Weed-killing rate is 100%.) | 5 (Weed-killing rate is 100%.) | 5 (Weed-killing rate is 100%.) | 5 (Weed-killing rate is 100%.) | 5 (Weed-killing rate is 100%.) | Herbicidal effect Am [17]: 5 (Weed-killing rate is 100%.)
3 | CCNC(=O)c1nc2ccc(O)cc2cc1C(=O)Nc1c(CC)ccc(Cl)c1CC [compound 275] | 5 (Weed-killing rate is 100%.) | 5 (Weed-killing rate is 100%.) | 4 (Weed-killing rate is 90-99%.) | 4 (Weed-killing rate is 90-99%.) | 3 (Weed-killing rate is 70-89%.) | 4 (Weed-killing rate is 90-99%.) | 3 (Weed-killing rate is 70-89%.) | 3 (Weed-killing rate is 70-89%.) | 5 (Weed-killing rate is 100%.) | 5 (Weed-killing rate is 100%.) | 4 (Weed-killing rate is 90-99%.) | 0 (Crop-killing rate is 0-20% (No Phytotoxicity).) | 1 (Crop-killing rate is 1-39%.) | 2 (Crop-killing rate is 40-69%.) | 1 (Crop-killing rate is 1-39%.) | 4 (Weed-killing rate is 90-99%.) | 4 (Weed-killing rate is 90-99%.) | 3 (Weed-killing rate is 70-89%.) | 4 (Weed-killing rate is 90-99%.) | 3 (Weed-killing rate is 70-89%.) | Herbicidal effect Am [17]: 3 (Weed-killing rate is 70-89%.)
4 | CCCNC(=O)c1nc2ccc(O)cc2cc1C(=O)Nc1c(CC)ccc(Cl)c1CC [compound 276] | 5 (Weed-killing rate is 100%.) | 5 (Weed-killing rate is 100%.) | 5 (Weed-killing rate is 100%.) | 5 (Weed-killing rate is 100%.) | 4 (Weed-killing rate is 90-99%.) | 5 (Weed-killing rate is 100%.) | 4 (Weed-killing rate is 90-99%.) | 4 (Weed-killing rate is 90-99%.) | 5 (Weed-killing rate is 100%.) | 3 (Weed-killing rate is 70-89%.) | 4 (Weed-killing rate is 90-99%.) | 0 (Crop-killing rate is 0-20% (No Phytotoxicity).) | 2 (Crop-killing rate is 40-69%.) | 3 (Crop-killing rate is 70-89%.) | 2 (Crop-killing rate is 40-69%.) | 5 (Weed-killing rate is 100%.) | 5 (Weed-killing rate is 100%.) | 4 (Weed-killing rate is 90-99%.) | 5 (Weed-killing rate is 100%.) | 4 (Weed-killing rate is 90-99%.) | Herbicidal effect Am [17]: 4 (Weed-killing rate is 90-99%.)
